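Test compounds were applied to cells in 96-well plates for 48 hours at 5 doses. GI50: concentration for 50% inhibition of growth. TGI: total growth inhibition.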
How the values were obtained:
Experiment in all cases: NCI anticancer screen, dose series, 48 h
[1] = system: A498 renal
[2] = system: HCT-15 colon
[3] = system: SF-295 CNS
[4] = system: 786-0 renal
[5] = system: OVCAR-3 ovarian
[6] = system: T-47D breast
[7] = system: MOLT-4 leukemia
[8] = system: HS 578T breast
[9] = system: OVCAR-8 ovarian
[10] = system: SK-MEL-2 melanoma
[11] = system: HL-60(TB) leukemia
[12] = system: EKVX NSCLC
[13] = system: LOX IMVI melanoma
[14] = system: HOP-62 NSCLC
[15] = system: OVCAR-4 ovarian
[16] = system: A549 NSCLC
[17] = system: SW-620 colon
[18] = system: DU-145 prostate
[19] = system: SR leukemia
[20] = system: HCC-2998 colon
[21] = system: NCI-H226 lung
[22] = system: HOP-92 NSCLC
[23] = system: SK-MEL-28 melanoma
[24] = system: MCF7 breast
[25] = system: SK-MEL-5 melanoma
[26] = system: RXF 393 renal
[27] = system: HCT-116 colon
[28] = system: COLO 205 colon
[29] = system: OVCAR-5 ovarian
[30] = system: UACC-62 melanoma
[31] = system: UACC-257 melanoma
[32] = system: IGROV1 ovarian
[33] = system: U251 CNS
[34] = system: KM12 colon
[35] = system: TK-10 renal
[36] = system: HT29 colon
[37] = system: M14 melanoma
[38] = system: NCI-H522 lung
[39] = system: SF-268 CNS
[40] = system: SNB-75 CNS
[41] = system: CCRF-CEM leukemia
[42] = system: MDA-MB-231 breast
[43] = system: SF-539 CNS
[44] = system: PC-3 prostate
[45] = system: ACHN renal
[46] = system: MDA-MB-435
[47] = system: RPMI-8226 leukemia
[48] = system: SK-OV-3 ovarian
[49] = system: SNB-19 CNS
[50] = system: SN12C renal
[51] = system: NCI/ADR-RES ovarian
[52] = system: NCI-H23 lung
[53] = system: UO-31 renal
[54] = system: MALME-3M melanoma
[55] = system: CAKI-1 renal
[56] = system: BT-549 breast
[57] = system: MDA-MB-468 breast
[58] = system: K-562 leukemia
[59] = system: NCI-H460 lung

Nc1cc(-c2c[nH]c3ccc(Br)cc23)nc2cc(-c3c[nH]c4ccccc34)nn12
GI50 [1]: 2.42 µM | TGI [1]: 7.74 µM | GI50 [2]: 1.74 µM | TGI [2]: 3.62 µM | GI50 [3]: 1.9 µM | TGI [3]: 4.01 µM | GI50 [4]: 1.63 µM | TGI [4]: 3.54 µM | GI50 [5]: 3.44 µM | TGI [5]: 14 µM | GI50 [6]: 3.15 µM | TGI [6]: 20.3 µM | GI50 [7]: 2.4 µM | TGI [7]: 6.72 µM | GI50 [8]: 3.11 µM | TGI [8]: 9.62 µM | GI50 [9]: 4.06 µM | TGI [9]: 18.1 µM | GI50 [10]: 2.44 µM | TGI [10]: 7.13 µM | GI50 [11]: 2.84 µM | TGI [11]: 12.7 µM | GI50 [12]: 2.92 µM | TGI [12]: 10.9 µM | GI50 [13]: 1.69 µM | TGI [13]: 3.07 µM | GI50 [14]: 3.52 µM | TGI [14]: 12.2 µM | GI50 [15]: 3.97 µM | TGI [15]: 19 µM | GI50 [16]: 2.91 µM | TGI [16]: 11.5 µM | GI50 [17]: 1.87 µM | TGI [17]: 3.7 µM | GI50 [18]: 3.88 µM | TGI [18]: 14.4 µM | GI50 [19]: 2.23 µM | TGI [19]: > 100 µM | GI50 [20]: 1.85 µM | TGI [20]: 3.61 µM | GI50 [21]: 6.13 µM | TGI [21]: 41.4 µM | GI50 [22]: 2.06 µM | TGI [22]: 6.08 µM | GI50 [23]: 2.23 µM | TGI [23]: 5.71 µM | GI50 [24]: 2.05 µM | TGI [24]: 5 µM | GI50 [25]: 2.7 µM | TGI [25]: 7.62 µM | GI50 [26]: 2.66 µM | TGI [26]: 7.87 µM | GI50 [27]: 1.77 µM | TGI [27]: 3.39 µM | GI50 [28]: 1.73 µM | TGI [28]: 3.33 µM | GI50 [29]: 2.08 µM | TGI [29]: 5.36 µM | GI50 [30]: 1.88 µM | TGI [30]: 4.35 µM | GI50 [31]: 3.86 µM | TGI [31]: 15.1 µM | GI50 [32]: 3.55 µM | TGI [32]: 14.6 µM | GI50 [33]: 2 µM | TGI [33]: 4.57 µM | GI50 [34]: 2.21 µM | TGI [34]: 5.31 µM | GI50 [35]: 2.56 µM | TGI [35]: 12 µM | GI50 [36]: 1.98 µM | TGI [36]: 4.08 µM | GI50 [37]: 2.09 µM | TGI [37]: 5.05 µM | GI50 [38]: 1.68 µM | TGI [38]: 3.51 µM | GI50 [39]: 3.72 µM | TGI [39]: 18.5 µM | GI50 [40]: 2.17 µM | TGI [40]: 11.3 µM | GI50 [41]: 3.05 µM | TGI [41]: 13.2 µM | GI50 [42]: 1.9 µM | TGI [42]: 3.63 µM | GI50 [43]: 1.74 µM | TGI [43]: 3.38 µM | GI50 [44]: 2.57 µM | TGI [44]: 8.4 µM | GI50 [45]: 2.77 µM | TGI [45]: 9.2 µM | GI50 [46]: 2.95 µM | TGI [46]: 9.98 µM | GI50 [47]: 2.88 µM | TGI [47]: 9.09 µM | GI50 [48]: 7.75 µM | TGI [48]: 21 µM | GI50 [49]: 3.67 µM | TGI [49]: 14.1 µM | GI50 [50]: 4.03 µM | TGI [50]: 16.4 µM | GI50 [51]: 3.33 µM | TGI [51]: 13.3 µM | GI50 [52]: 2.36 µM | TGI [52]: 6.64 µM | GI50 [53]: 2.74 µM | TGI [53]: 11.8 µM | GI50 [54]: 1.91 µM | TGI [54]: 3.64 µM | GI50 [55]: 2.2 µM | TGI [55]: 7.33 µM | GI50 [56]: 9.32 µM | TGI [56]: 21.8 µM | GI50 [57]: 1.75 µM | TGI [57]: 4.13 µM

COc1ccccc1-n1cc(C#N)c(N)c1C(=O)c1ccc(Cl)cc1Cl
GI50 [1]: 72 µM | TGI [1]: > 100 µM | GI50 [2]: 3.62 µM | TGI [2]: 64.9 µM | GI50 [3]: 3.72 µM | TGI [3]: 27 µM | GI50 [4]: 7.12 µM | TGI [4]: > 100 µM | GI50 [5]: 3.86 µM | TGI [5]: 18.6 µM | GI50 [6]: 4.53 µM | TGI [6]: > 100 µM | GI50 [7]: 4.84 µM | TGI [7]: > 100 µM | GI50 [8]: 3.02 µM | TGI [8]: 58.1 µM | GI50 [9]: 21 µM | TGI [9]: > 100 µM | GI50 [10]: 2.69 µM | TGI [10]: 7.5 µM | GI50 [11]: 3.15 µM | TGI [11]: 70.4 µM | GI50 [12]: 8.24 µM | TGI [12]: > 100 µM | GI50 [13]: 4.89 µM | TGI [13]: > 100 µM | GI50 [14]: 6.4 µM | TGI [14]: 87.7 µM | GI50 [15]: 8.96 µM | TGI [15]: > 100 µM | GI50 [16]: 7.39 µM | TGI [16]: > 100 µM | GI50 [17]: 3.98 µM | TGI [17]: > 100 µM | GI50 [58]: 3.63 µM | TGI [58]: > 100 µM | GI50 [18]: 9.73 µM | TGI [18]: > 100 µM | GI50 [19]: 3.53 µM | TGI [19]: > 100 µM | GI50 [20]: 12.4 µM | TGI [20]: > 100 µM | GI50 [21]: 5.79 µM | TGI [21]: 64.3 µM | GI50 [22]: 16.8 µM | TGI [22]: > 100 µM | GI50 [23]: 7.58 µM | TGI [23]: > 100 µM | GI50 [24]: 3.94 µM | TGI [24]: 35.2 µM | GI50 [25]: 4.84 µM | TGI [25]: > 100 µM | GI50 [26]: 4.37 µM | TGI [26]: 39.3 µM | GI50 [27]: 4.02 µM | TGI [27]: 28.7 µM | GI50 [28]: 5.7 µM | TGI [28]: > 100 µM | GI50 [29]: 9.71 µM | TGI [29]: > 100 µM | GI50 [30]: 3.67 µM | TGI [30]: 42.8 µM | GI50 [31]: 6.31 µM | TGI [31]: > 100 µM | GI50 [32]: 7.49 µM | TGI [32]: > 100 µM | GI50 [33]: 4.45 µM | TGI [33]: > 100 µM | GI50 [34]: 3.9 µM | TGI [34]: > 100 µM | GI50 [35]: 52.9 µM | TGI [35]: > 100 µM | GI50 [36]: 3.18 µM | TGI [36]: > 100 µM | GI50 [37]: 3.27 µM | TGI [37]: > 100 µM | GI50 [38]: 1.87 µM | TGI [38]: 5.12 µM | GI50 [39]: 9.77 µM | TGI [39]: > 100 µM | GI50 [40]: 2.61 µM | TGI [40]: 8.54 µM | GI50 [41]: 4.68 µM | TGI [41]: > 100 µM | GI50 [42]: 9.05 µM | TGI [42]: > 100 µM | GI50 [43]: 3.37 µM | TGI [43]: 11.5 µM | GI50 [44]: 5.6 µM | TGI [44]: > 100 µM | GI50 [45]: 7.79 µM | TGI [45]: > 100 µM | GI50 [46]: 1.92 µM | TGI [46]: 4.41 µM | GI50 [47]: 9.39 µM | TGI [47]: > 100 µM | GI50 [48]: 3.36 µM | TGI [48]: 28.3 µM | GI50 [49]: 6.6 µM | TGI [49]: 61.6 µM | GI50 [50]: 5.24 µM | TGI [50]: > 100 µM | GI50 [51]: 3.55 µM | TGI [51]: 64.2 µM | GI50 [52]: 7.55 µM | TGI [52]: > 100 µM | GI50 [53]: 7.87 µM | TGI [53]: > 100 µM | GI50 [54]: 4.2 µM | TGI [54]: > 100 µM | GI50 [55]: 4.7 µM | TGI [55]: 28.4 µM | GI50 [56]: 3.41 µM | TGI [56]: 58.5 µM | GI50 [57]: 2.48 µM | TGI [57]: 8.82 µM | GI50 [59]: 4.66 µM | TGI [59]: > 100 µM
